# Reference: patent publication US20240425464A1, “Substituted Monohydrazides as Potent Antifungal Agents” (University of Kentucky Research Foundation, priority 2023, published 2024)
# Read-outs that look alike come from different tables or passages of the source.
# Legend:
# Test in all cases: MIC determination by in vitro antifungal assay
# Format in all cases: cell-based
# [1] = test system: Candida glabrata ATCC 2001 (H); settings: ATCC 2001 in text
# Procedure: (§1) 10 mg/mL stock solutions of compounds 1a-9j were prepared in dimethyl sulfoxide (DMSO) and were stored at −20° C. in the dark. The antifungal agent amphotericin B (AmB) was purchased from VWR (Radnor PA, USA). AmB was dissolved in DMSO at a final concentration of 5 mg/mL and was stored at −20° C., protected from light. Candida albicans American Type Culture Collection (ATCC) 10231 (strain A), C. albicans ATCC 64124 (B), and C. albicans ATCC MYA-2876 (C) were obtained from Utah State University. C. albicans ATCC 90819 (D), C. albicans ATCC MYA-2310 (E), C. albicans ATCC MYA-1237 (F), C. albicans ATCC MYA-1003 (G), Candida glabrata ATCC 2001 (H), Candida krusei ATCC 6258 (I), Candida parapsilosis ATCC 22019 (J), Cryptococcus neoformans ATCC MYA-895 (M), Aspergillus terreus ATCC MYA-3633 (N), and Aspergillus flavus ATCC MYA-3631 (0) were obtained from the American Type Culture Collection (ATCC; Manassas, VA, USA). Aspergillus nidulans ATCC 38163 (P) was obtained from University of Kentucky. Clinically derived Aspergillus fumigatus NRRL 163 (Q), A. fumigatus NRRL 5109 (R), and A. fumigatus NRRL 6113 (S) were obtained from Northern Regional Research Laboratory (NRRL). Candida auris 384 (K), C. auris 390 (L), and fungal strains 381-400 (including 10 C. auris (AR Bank #381-390), 3 Candida duobushaemulonii (AR Bank #391, AR Bank #392, and AR Bank #394), 2 Candida haemulonii (AR Bank #393 and AR Bank #395), 1 Kodameae ohmeri (AR Bank #396), 1 C. krusei (AR Bank #397), 1 Candida lusitaniae (AR Bank #398), and 2 Saccharomyces cerevisiae strains (AR Bank #399 and AR Bank #400)) were part of a larger fungal library from the AR Bank maintained by the Centers for Disease Control and Prevention (CDC; Atlanta, GA, USA). Filamentous fungi and yeasts were cultivated at 35° C. in RPMI 1640 medium (with L-glutamine, without sodium bicarbonate, Sigma-Aldrich, St. Louis, MO) buffered to a pH of 7.0 with 0.165 M morpholinepropanesulfonic acid (MOPS) buffer (Sigma-Aldrich). For cytotoxicity assays, HepG2 and the mouse macrophage cell line J774A.1 were obtained from University of Kentucky. The human embryonic kidney cell line, HEK-293, was bought from the ATCC. Mammalian cells were grown in Dulbecco's Modified Eagle's Medium (DMEM) (from VWR) with 10% fetal bovine serum (FBS) (from VWR) and 1% Pen/Strep (from ATCC). Cell lines were cultured at 37° C. with 5% CO2 and passaged by trypsinization with 0.05% trypsin: 0.53 mM EDTA (from Sigma-Aldrich).
# (§2) The MIC values of compounds 1a-9j against yeast cells (strains A-P and 381-400) were determined in 96-well plates as described in the CLSI documents M27-A3 and M38-A2 with minor modifications.^2 A single colony of freshly prepared yeast cells was used to inoculate 5 mL of yeast extract peptone dextrose (YPD) broth prior to incubation overnight with shaking at 200 rpm at 35° C. From the actively growing yeast culture, 100 µL were then transferred to 900 μL of RPMI 1640 medium and re-adjusted to achieve OD600 of 0.12 (˜1×10^6 CFU/mL). The cell suspension was further diluted to achieve 1:100 in RPMI 1640 medium. 100 μL of cells were added to the wells of a 96-well microtiter plates that contained 100 µL of the compound solution to obtain concentrations of 0.06-31.3 μg/mL of compounds 1a-9j or AmB prior to incubation for 48 h at 35° C. […]
# [2] = test system: Candida krusei ATCC 6258 (I)
# Procedure: as §1, §2
# [3] = test system: Candida parapsilosis ATCC 22019 (J)
# Procedure: as §1, §2
# [4] = test system: Aspergillus flavus ATCC MYA-3631 (O); settings: strain O = A. flavus ATCC MYA-3631
# Procedure: as §1
# (§3) The MIC values of compounds 1a-9j against yeast cells (strains A-P and 381-400) were determined in 96-well plates as described in the CLSI documents M27-A3 and M38-A2 with minor modifications.^2 A single colony of freshly prepared yeast cells was used to inoculate 5 mL of yeast extract peptone dextrose (YPD) broth prior to incubation overnight with shaking at 200 rpm at 35° C. From the actively growing yeast culture, 100 µL were then transferred to 900 μL of RPMI 1640 medium and re-adjusted to achieve OD600 of 0.12 (˜1×10^6 CFU/mL). The cell suspension was further diluted to achieve 1:100 in RPMI 1640 medium. 100 μL of cells were added to the wells of a 96-well microtiter plates that contained 100 µL of the compound solution to obtain concentrations of 0.06-31.3 μg/mL of compounds 1a-9j or AmB prior to incubation for 48 h at 35° C.
# (§4) Finally, the activity of these monohydrazides was explored against […] non-Candida strains: Cryptococcus neoformans ATCC MYA-895 (M), Aspergillus terreus ATCC MYA-3633 (N), Aspergillus flavus ATCC MYA-3631 (O), Aspergillus nidulans ATCC 38163 (P), Aspergillus fumigatus NRRL 163 (Q), A. fumigatus NRRL 5109 (R), and A. fumigatus NRRL 6113 (S) (Tables 1A and 1B). The double dilution method was used with concentrations ranging from 0.06 to 31.3 j·tg mL^−1 for monohydrazides 1a-9j, and the commercially available positive antifungal control amphotericin B (AmB).
# [5] = test system: Aspergillus nidulans ATCC 38163 (P)
# Procedure: as §1, §3, §4
# [6] = test system: Aspergillus terreus ATCC MYA-3633 (N); settings: strain N = A. terreus ATCC MYA-3633
# Procedure: as §1, §3, §4
# [7] = test system: Cryptococcus neoformans ATCC MYA-895 (M)
# Procedure: as §1, §3, §4
# [8] = strain J = C. parapsilosis ATCC 22019
# [9] = strain P = A. nidulans ATCC 38163
# [10] = strain M = C. neoformans ATCC MYA-895
# [11] = Nakaseomyces glabratus, ATCC 2001 / ATCC 2004, strain H = C. glabrata ATCC 2004 (footnote), read-out: MIC
# [12] = Pichia kudriavzevii, ATCC6258, strain I = C. krusei ATCC 6258, read-out: MIC
# [13] = Lodderomyces parapsilosis, ATCC22019, strain J = C. parapsilosis ATCC 22019, read-out: MIC
# [14] = Aspergillus flavus, read-out: MIC
# [15] = Aspergillus nidulans, ATCC38163, strain P = A. nidulans ATCC 38163, read-out: MIC
# [16] = Aspergillus terreus, read-out: MIC
# [17] = Cryptococcus neoformans, strain M = C. neoformans ATCC MYA-895, read-out: MIC
Structure (SMILES),MIC ([1]; strain H = C. glabrata ATCC 2004 (footnote)),MIC ([2]; strain I = C. krusei ATCC 6258),"MIC [3, 8]",MIC [4],"MIC [5, 9]",MIC [6],"MIC [7, 10]","MIC [1, 11]","MIC [2, 12]","MIC [3, 13]","MIC [4, 14]","MIC [5, 15]","MIC [6, 16]","MIC [7, 17]",MIC ([7]; against strain M)
O=C(NNc1ccc(Cl)cc1)c1ccc(F)cn1 [Compound 3e],7.8 μg/mL^−1,0.98 μg/mL^−1,31.3 μg/mL^−1,>31.3 μg/mL^−1,15.6 μg/mL^−1,>31.3 μg/mL^−1,3.9 μg/mL^−1,–,–,–,–,–,–,–,–
O=C(NNc1cc(F)ccc1F)c1ccc(F)cc1F [Compound 1h],–,–,–,–,–,–,–,> 31.3 µg/mL,3.9 µg/mL,31.3 µg/mL,15.6 µg/mL,3.9 µg/mL,> 31.3 µg/mL,0.98 µg/mL,0.98 j·tg mL^−1
O=C(NNc1ccc(F)cc1F)c1cccc(F)n1 [Compound 5g],–,–,–,–,–,–,–,31.3 µg/mL,0.98 µg/mL,31.3 µg/mL,31.3 µg/mL,0.49 µg/mL,3.9 µg/mL,0.49 µg/mL,–
O=C(NNc1cc(F)ccc1F)c1ccccn1 [Compound 2h],–,–,–,–,–,–,–,3.9 µg/mL,0.24 µg/mL,3.9 µg/mL,3.9 µg/mL,0.49 µg/mL,0.98 µg/mL,0.49 µg/mL,–
O=C(NNc1ccc(F)cc1F)c1ccc(F)cc1F [Compound 1g],–,–,–,–,–,–,–,1.95 µg/mL,7.8 µg/mL,7.8 µg/mL,> 31.3 µg/mL,1.95 µg/mL,31.3 µg/mL,0.49 µg/mL,–
COc1cccc(NNC(=O)c2ccc(Br)cn2)c1 [Compound 4c],–,–,–,–,–,–,–,15.6 µg/mL,0.24 µg/mL,3.9 µg/mL,> 31.3 µg/mL,1.95 µg/mL,3.9 µg/mL,0.49 µg/mL,–
COc1cccc(NNC(=O)c2nc(F)ccc2F)c1 [Compound 8c],–,–,–,–,–,–,–,15.6 µg/mL,15.6 µg/mL,7.8 µg/mL,> 31.3 µg/mL,7.8 µg/mL,31.3 µg/mL,7.8 µg/mL,–
O=C(NNc1ccc(F)cc1)c1nc(F)ccc1F [Compound 8d],–,–,–,–,–,–,–,15.6 µg/mL,0.24 µg/mL,7.8 µg/mL,7.8 µg/mL,0.49 µg/mL,1.95 µg/mL,0.49 µg/mL,–
O=C(NNc1cccc(Cl)c1)c1cnccn1 [Compound 9b],–,–,–,–,–,–,–,3.9 µg/mL,0.24 µg/mL,1.95 µg/mL,> 31.3 µg/mL,0.98 µg/mL,0.98 µg/mL,0.24 µg/mL,–
COc1cccc(NNC(=O)c2ccc(F)cn2)c1 [Compound 3c],–,0.24 μg/mL^−1,3.9 μg/mL^−1,>31.3 μg/mL^−1,1.95 μg/mL^−1,3.9 μg/mL^−1,0.24 μg/mL^−1,–,–,–,–,–,–,–,–
